Bounds are passed on as bounds.

Experimental findings from US20260199485A1, “RNA DEGRADERS AND USES THEREOF” (Arrakis Therapeutics, Inc., priority 2022, published 2026) are described below.

The target of the first experiment is T1, CNOT7 (Homo sapiens, UniProt Q9UIV1).
T1 construct: biotin (biotinylated); purchased Ichor Life Sciences
T1 sequence (Q9UIV1 whole entry): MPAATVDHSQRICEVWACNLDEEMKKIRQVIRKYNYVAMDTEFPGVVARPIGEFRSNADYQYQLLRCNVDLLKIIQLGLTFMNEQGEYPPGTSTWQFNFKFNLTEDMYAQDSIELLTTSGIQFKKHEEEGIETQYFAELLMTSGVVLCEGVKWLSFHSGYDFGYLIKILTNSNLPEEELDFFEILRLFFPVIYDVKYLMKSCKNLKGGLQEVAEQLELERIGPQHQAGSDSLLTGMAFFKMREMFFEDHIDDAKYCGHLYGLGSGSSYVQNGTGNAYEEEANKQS
In words: Binding of compounds to CNOT7 by surface plasmon resonance (SPR). The note with it: Table 5; dissociation constant for CNOT7 by SPR. How it is done:
Surface plasmon resonance (SPR) was used to evaluate the binding of compounds to CNOT7. Experiments were performed on a Biacore 8K (Cytiva) with a running buffer consisting of 20 mM HEPES pH7.5, 100 mM KCl, 3 mM MgCl2, 1 mM TCEP, 0.05% tween-20, 2% DMSO. Briefly, biotinylated CNOT7 (Ichor Life Sciences) at a concentration of 70 μg/ml was immobilized to a streptavidin coated chip (Cytiva sensor chip SA) for 1200 sec at a flow rate of 5 μl/min (typical immobilization level 7,500 RU). For compound binding experiments, various concentrations of analyte were flowed over the chip with 120 sec association phase, 120 sec dissociation phase, at a flow rate of 30 ul/min and collection rate of 10 Hz. Reference channel subtraction and solvent correction were applied to all sensograms prior to data analysis. Sensograms were fit to 1:1 steady state affinity model. FIGS. 3 and 4 show the binding of exemplary compounds and the AMP control (a known CNOT7 active site binder) at various concentrations to CNOT7.
Background: In SPR one partner is held on a chip, and binding of the other changes the refractive index at the surface.
The term Kd denotes the constant that tells how readily two partners part at equilibrium. Take `C[C@@H](NC(=O)CSc1nc(=O)[nH]cc1Cl)c1ccc(Cl)c(F)c1` [Compound I-314]: the Kd was 1 to 25 µM.

The experiment is the same for the next values; noted with them: Table 6; dissociation constant for CNOT7 by SPR.
Take `COc1cc(F)c([C@@H](C)NC(=O)CSc2nc(=O)[nH]cc2Cl)cc1F` [Compound I-311]: the Kd fell in the range of 1 to 25 µM.
On the same count and under the same terms, to `COc1cc(F)c([C@@H](C)NC(=O)CSc2nc(=O)[nH]cc2Cl)c(F)c1` [Compound I-312] belongs 1 to 25 µM.
Same read-out and setting: with `COc1c(F)cc([C@@H](C)NC(=O)CSc2nc(=O)[nH]cc2Cl)cc1F` [Compound I-313] the figure was 1 to 25 µM; with `Cc1c[nH]c(=O)nc1SCC(=O)NC(C)c1ccc2c(c1)CC(=O)N2` (stereo not drawn) [Compound I-322], 1 to 25 µM; with `COCC(Sc1nc(=O)[nH]cc1Cl)C(=O)NC(C)c1ccc2c(c1)CC(=O)N2` (stereo not drawn) [Compound I-323], 1 to 25 µM.
`COc1ccc([C@@H](C)NC(=O)C2(Sc3nc(=O)[nH]cc3C)CCC2)cc1` [Compound I-324] returned a Kd of 1 to 25 µM.
The same measure, in the same setting: with `COC[C@H](Sc1nc(=O)[nH]cc1C)C(=O)N[C@@H](C)c1ccc2c(c1)CC(=O)N2` [Compound I-325] the figure was 1 to 25 µM; with `C#CCOCCOCCOCC(Sc1nc(=O)[nH]cc1C)C(=O)NC(C)c1ccc(OC)cc1F` (stereo not drawn) [Compound I-326], 1 to 25 µM; with `COc1ccc([C@@H](NC(=O)CSc2nc(=O)[nH]cc2C)C(C)C)cc1` [Compound I-327], 1 to 25 µM.
Regarding `Cc1c[nH]c(=O)nc1SCC(=O)N[C@@H](C)c1ccc2c(c1)CC(=O)N2` [Compound I-328], the Kd was 1 to 25 µM.

The experiment is the same for the next values; noted with them: dissociation constant by SPR, Table 7.
The compound `COCC(Sc1nc(=O)[nH]cc1Cl)C(=O)NC(C)c1ccc2c(c1)CC(=O)N2` (stereo not drawn) [Compound I-323] came in with a Kd of 1 to 25 µM.
Compound `COc1ccc([C@@H](C)NC(=O)C2(Sc3nc(=O)[nH]cc3C)CCC2)cc1` [Compound I-324] had a Kd of 0.1 to 1 µM.
Compound `COC[C@H](Sc1nc(=O)[nH]cc1C)C(=O)N[C@@H](C)c1ccc2c(c1)CC(=O)N2` [Compound I-325] displayed a Kd of 1 to 25 µM.
On the same count and under the same terms, with `C#CCOCCOCCOCC(Sc1nc(=O)[nH]cc1C)C(=O)NC(C)c1ccc(OC)cc1F` (stereo not drawn) [Compound I-326] the figure was 1 to 25 µM; with `COc1ccc([C@@H](NC(=O)CSc2nc(=O)[nH]cc2C)C(C)C)cc1` [Compound I-327], 1 to 25 µM; with `Cc1c[nH]c(=O)nc1SCC(=O)N[C@@H](C)c1ccc2c(c1)CC(=O)N2` [Compound I-328], 1 to 25 µM.
Still for that read-out and setting: to `COCC(Sc1nc(=O)[nH]cc1C)C(=O)NC(C)c1ccc2c(c1)CC(=O)N2` (stereo not drawn) [Compound I-331] belongs 1 to 25 µM; to `COC[C@@H](Sc1nc(=O)[nH]cc1C)C(=O)N[C@@H](C)c1ccc2c(c1)CC(=O)N2` [Compound I-332], 1 to 25 µM; to `COC[C@@H](Sc1nc(=O)[nH]cc1Cl)C(=O)N[C@H](C)c1ccc2c(c1)CC(=O)N2` [Compound I-333], 1 to 25 µM.
Still for that read-out and setting: with `COC[C@H](Sc1nc(=O)[nH]cc1Cl)C(=O)N[C@H](C)c1ccc2c(c1)CC(=O)N2` [Compound I-334] the figure was 1 to 25 µM; with `COc1ccc(C(CN(C)C)NC(=O)CSc2nc(=O)[nH]cc2C)cc1` (stereo not drawn) [Compound I-340], over 25 µM; with `C#CCOCCOCCOCC(Sc1nc(=O)[nH]cc1Cl)C(=O)NC(C)c1ccc(OC)cc1F` (stereo not drawn) [Compound I-342], 1 to 25 µM.
As for `COc1ccc([C@@H](C)NC(=O)[C@@H](CCOCCOCCOCCN=[N+]=[N-])Sc2nc(=O)[nH]cc2Cl)c(F)c1` [Compound I-349], the Kd is 1 to 25 µM.
`COc1ccc([C@@H](C)NC(=O)[C@@H](COCCOCCOCCN=[N+]=[N-])Sc2nc(=O)[nH]cc2C)c(F)c1` [Compound I-367] came in with a Kd of 1 to 25 µM.
`COc1ccc([C@@H](C)NC(=O)[C@H](COCCOCCOCCN=[N+]=[N-])Sc2nc(=O)[nH]cc2C)c(F)c1` [Compound I-368] gave a Kd of 1 to 25 µM.
`COc1ccc([C@@H](C)NC(=O)[C@@H](CCOCCOCCOCCN=[N+]=[N-])Sc2nc(=O)[nH]cc2C)c(F)c1` [Compound I-378] came in with a Kd of 1 to 25 µM.
On to `COc1ccc(C(C)NC(=O)C(CCOCCOCCOCCn2cc(CCc3ccc(NC(=O)Nc4nc(CC(=O)N5CCN(C)CC5)cs4)cc3)nn2)Sc2nc(=O)[nH]cc2Cl)c(F)c1` (stereo not drawn) [Compound I-384], for which the Kd was over 25 µM.
In turn, `COc1ccc([C@@H](C)NC(=O)[C@@H](COCCOCCOCCN=[N+]=[N-])Sc2nc(=O)[nH]cc2Cl)c(F)c1` [Compound I-392] registered a Kd of 1 to 25 µM.
For the compound `COc1ccc(CNC(=O)[C@H](CCOCCOCCOCCN=[N+]=[N-])Sc2nc(=O)[nH]cc2Cl)cc1` [Compound I-400], the Kd is over 25 µM.
`COc1ccc(CNC(=O)[C@@H](CCOCCOCCOCCN=[N+]=[N-])Sc2nc(=O)[nH]cc2Cl)c(F)c1` [Compound I-401]: the Kd was over 25 µM.
Still for that read-out and setting: to `COc1ccc(CNC(=O)[C@H](CCOCCOCCOCCN=[N+]=[N-])Sc2nc(=O)[nH]cc2Cl)c(F)c1` [Compound I-402] belongs 1 to 25 µM; to `COc1ccc(CNC(=O)[C@H](COCCOCCOCCN=[N+]=[N-])Sc2nc(=O)[nH]cc2C)cc1` [Compound I-404], 1 to 25 µM.
On to `COc1ccc(CNC(=O)[C@@H](COCCOCCOCCN=[N+]=[N-])Sc2nc(=O)[nH]cc2C)c(F)c1` [Compound I-405], for which the Kd lay in the range of 1 to 25 µM.
Still for that read-out and setting: with `Cc1c[nH]c(=O)nc1S[C@H](COCCOCCOCCN=[N+]=[N-])C(=O)NCc1ccc2c(c1)CC(=O)N2` [Compound I-407] the figure was 1 to 25 µM; with `Cc1c[nH]c(=O)nc1S[C@@H](COCCOCCOCCN=[N+]=[N-])C(=O)NCc1ccc2c(c1)CC(=O)N2` [Compound I-408], 1 to 25 µM; with `[N-]=[N+]=NCCOCCOCCOCC[C@@H](Sc1nc(=O)[nH]cc1Cl)C(=O)NCc1ccc2c(c1)CC(=O)N2` [Compound I-409], over 25 µM.
Still for that read-out and setting: with `[N-]=[N+]=NCCOCCOCCOCC[C@H](Sc1nc(=O)[nH]cc1Cl)C(=O)NCc1ccc2c(c1)CC(=O)N2` [Compound I-410] the figure was over 25 µM; with `COC[C@H](Sc1nc(=O)[nH]cc1C)C(=O)NCc1ccc2c(c1)CC(=O)N2C` [Compound I-412], 1 to 25 µM; with `COc1ccc2c(c1)C[C@@H](COCCOCCOCCOCCN=[N+]=[N-])N(C(=O)CSc1nc(=O)[nH]cc1Cl)C2` [Compound I-415], over 25 µM.
With `COc1ccc2c(c1)C[C@H](COCCOCCOCCOCCN=[N+]=[N-])N(C(=O)CSc1nc(=O)[nH]cc1Cl)C2` [Compound I-416], the Kd lay in the range of 1 to 25 µM.
The compound `COc1ccc2c(c1)CCN(C(=O)[C@@H](COCCOCCOCCN=[N+]=[N-])Sc1nc(=O)[nH]cc1C)[C@@H]2C` [Compound I-421, 4-[(1R)-1-[2-[2-(2-azidoethoxy)ethoxy]ethoxymethyl]-2-[(1R)-6-methoxy-1-methyl-3,4-dihydro-1H-isoquinolin-2-yl]-2-oxo-ethyl]sulfanyl-5-methyl-1H-pyrimidin-2-one] had a Kd of over 25 µM.
Compound `COc1ccc2c(c1)[C@H](COCCOCCOCCOCCN=[N+]=[N-])CN(C(=O)CSc1nc(=O)[nH]cc1Cl)[C@@H]2C` [Compound I-426] showed a Kd of 1 to 25 µM.
Compound `COc1ccc2c(c1)C[C@H](COCCOCCOCCOCCN=[N+]=[N-])N(C(=O)CSc1nc(=O)[nH]cc1Cl)[C@@H]2C` [Compound I-428] came in with a Kd of 1 to 25 µM.
Turning to `COc1ccc2c(c1)CCN(C(=O)CSc1nc(=O)[nH]cc1Cl)C2` [Compound I-431], the Kd lay in the range of 1 to 25 µM.
Still for that read-out and setting: to `C#CCOCCOCCOCCOC[C@@H]1Cc2cc(OC)ccc2[C@@H](C)N1C(=O)CSc1nc(=O)[nH]cc1Cl` [Compound I-432] belongs 1 to 25 µM.
On the same count and under the same terms, with `C#CCOCCOCCOCCOC[C@H]1Cc2cc(OC)ccc2[C@@H](C)N1C(=O)CSc1nc(=O)[nH]cc1Cl` [Compound I-433] the figure was over 25 µM.
Consider `COc1cc(F)c2c(c1)CCN(C(=O)CSc1nc(=O)[nH]cc1Cl)C2` [Compound I-440], for which the Kd was over 25 µM.
The same measure, in the same setting: with `COCCOCCC(Sc1nc(=O)[nH]cc1C)C(=O)NCc1ccc(OC)cc1` (stereo not drawn) [Compound I-443] the figure was 1 to 25 µM; with `COCCOCC[C@@H](Sc1nc(=O)[nH]cc1C)C(=O)NCc1ccc(OC)cc1` [Compound I-444], 1 to 25 µM; with `C#CCOCCOCCOCCOC[C@@H]1Cc2cc(OC)ccc2[C@H](C)N1C(=O)CSc1nc(=O)[nH]cc1Cl` [Compound I-482], 1 to 25 µM.
For `COc1ccc2c(c1)C[C@H](COCCOCCOCCOCCN=[N+]=[N-])N(C(=O)CSc1nc(=O)[nH]cc1C)C2` [Compound I-487], the Kd is over 25 µM.
As to `COc1ccc(CNC(=O)[C@H](CCc2ccc(O)cc2)Sc2nc(=O)[nH]cc2C)cc1` [Compound I-489], the Kd was in the range of 1 to 25 µM.
The same measure, in the same setting: with `COCCNC(=O)CCC(Sc1nc(=O)[nH]cc1C)C(=O)NCc1ccc(OC)cc1` (stereo not drawn) [Compound I-490] the figure was 1 to 25 µM; with `COc1ccc(CNC(=O)C(CCC(=O)N2CCN(C)CC2)Sc2nc(=O)[nH]cc2C)cc1` (stereo not drawn) [Compound I-491], over 25 µM.
The same measure, in the same setting: to `CC#CCNC(=O)CCC(Sc1nc(=O)[nH]cc1C)C(=O)NCc1ccc(OC)cc1` (stereo not drawn) [Compound I-492] belongs over 25 µM; to `C#CCOCCOCCOCCOC[C@H]1CN(C(=O)CSc2nc(=O)[nH]cc2Cl)[C@@H](C)c2ccc(OC)cc21` [Compound I-493], 1 to 25 µM; to `COCCN1CCN(CCC(Sc2nc(=O)[nH]cc2C)C(=O)NCc2ccc(OC)cc2)CC1` (stereo not drawn) [Compound I-499], 1 to 25 µM.
As for `COCCOCC#CCC(Sc1nc(=O)[nH]cc1C)C(=O)NCc1ccc(OC)cc1` (stereo not drawn) [Compound I-500], the Kd fell in the range of 1 to 25 µM.
Same read-out and setting: to `COCCOCC#CC[C@H](Sc1nc(=O)[nH]cc1C)C(=O)NCc1ccc(OC)cc1` [Compound I-502] belongs 1 to 25 µM.
